Where two headings read alike, the source gives them in different places.

In patent publication US9701664B2, “Fused 1,4-dihydrodioxin derivatives as inhibitors of heat shock transcription factor 1” (Cancer Research Technology Limited, priority 2013, dated 2017) one finds IC50 data, which are given here for 27 molecules.

Experiment [1] relates to HSP72 in U2OS cells. The experiment can be described thus: Cell-based ELISA (Cellisa) assay, U2OS cells: inhibition of 17-AAG-induced HSP72. The following applies: U2OS cells (Examples 1-168). On the technique in general: In an ELISA, binding on a coated surface is turned into a signal by an enzyme label.
In experiment [2] the test system is U2OS cells. The experiment can be described thus: Titre Blue cell viability assay, U2OS cells. Format: cell-based.

One may read the IC50 as the midpoint of a concentration-inhibition curve. Low readings indicate greater potency in that assay, high ones weaker potency in that assay. Regarding `Cc1ccc2cc(C(=O)Nc3cc(NC(=O)c4ccc5c(c4)OCCO5)ccc3CO)ccc2n1` [Example 167, N-(5-(2,3-dihydrobenzo[b][1,4]dioxine-6-carboxamido)-2-(hydroxymethyl)phenyl)-2-methylquinoline-6-carboxamide], the IC50 in experiment [1] (Homo sapiens) was 176 nM; in experiment [2] (Homo sapiens, U2OS), 86 nM.
The like results for `Cc1ccc(NC(=O)c2ccc3c(c2)OCCO3)cc1NC(=O)c1ccc2nc(OCCN3CCCC(F)C3)ccc2c1` (stereo not drawn) [Example 57, N-(5-(2,3-dihydrobenzo[b][1,4]dioxine-6-carboxamido)-2-methylphenyl)-2-(2-(3-fluoropiperidin-1-yl)ethoxy)quinoline-6-carboxamide] were, in that order, 37 nM and 31 nM.
In the case of `Cc1ccc(NC(=O)c2ccc3c(c2)OCCO3)cc1NC(=O)c1ccc2c(c1)CCCC2` [Example 34, N-(4-methyl-3-(5,6,7,8-tetrahydronaphthalene-2-carboxamido)phenyl)-2,3-dihydrobenzo[b][1,4]dioxine-6-carboxamide], the IC50 amounted to 850 nM in experiment [1] (Homo sapiens) and 413 nM in experiment [2] (Homo sapiens, U2OS).
On the same counts, the results for `Cc1ccc(NC(=O)c2ccc3c(c2)OCCO3)cc1NC(=O)c1cnc2ncccc2c1` [Example 45, N-(5-(2,3-dihydrobenzo[b][1,4]dioxine-6-carboxamido)-2-methylphenyl)-1,8-naphthyridine-3-carboxamide] are 36 nM and 85 nM.
On the same counts, the results for `Cc1ccc(NC(=O)c2ccc3c(c2)OCCO3)cc1NC(=O)c1ccc2nc(OCCCN(C)C)ccc2c1` [Example 51, N-(5-(2,3-dihydrobenzo[b][1,4]dioxine-6-carboxamido)-2-methylphenyl)-2-(3-(dimethylamino)propoxy)quinoline-6-carboxamide] are 4 nM and 10 nM.
Consider `Cc1ccc(NC(=O)c2ccc3c(c2)OCCO3)cc1NC(=O)c1ccc2nc(COCCN3CCCC3)ccc2c1` [Example 147, N-(5-(2,3-dihydrobenzo[b][1,4]dioxine-6-carboxamido)-2-methylphenyl)-2-((2-(pyrrolidin-1-yl)ethoxy)methyl)quinoline-6-carboxamide], for which the IC50 was 83 nM in experiment [1] (Homo sapiens) and 54 nM in experiment [2] (Homo sapiens, U2OS).
On the same counts, the results for `Cc1ccc(NC(=O)c2ccc3c(c2)OCCO3)cc1NC(=O)c1cnc2cccc(NCCN3CCCC3)c2c1` [Example 148, N-(5-(2,3-dihydrobenzo[b][1,4]dioxine-6-carboxamido)-2-methylphenyl)-5-((2-(pyrrolidin-1-yl)ethyl)amino)quinoline-3-carboxamide] are 88 nM and 104 nM.
Consider `COc1ccc(C(=O)Nc2cc(NC(=O)c3ccc4c(c3)OCCO4)ccc2C)cc1C` [Example 26, N-(3-(4-methoxy-3-methylbenzamido)-4-methylphenyl)-2,3-dihydrobenzo[b][1,4]dioxine-6-carboxamide], for which the IC50 in experiment [1] (Homo sapiens) is 262 nM; in experiment [2] (Homo sapiens, U2OS) it was 71 nM.
In the case of `Cc1cc2cc(C(=O)Nc3cc(NC(=O)c4ccc5c(c4)OCCO5)ccc3C)cnc2[nH]1` [Example 99, N-(5-(2,3-dihydrobenzo[b][1,4]dioxine-6-carboxamido)-2-methylphenyl)-2-methyl-1H-pyrrolo[2,3-b]pyridine-5-carboxamide], the IC50 in experiment [1] (Homo sapiens) stood at 42 nM; in experiment [2] (Homo sapiens, U2OS), 62 nM.
As to “tert-butyl (44(64(5-(2,3-dihydrobenzo[b][1,4]dioxine-6-carboxamido)-2-methylphenyl)carbamoyl)quinolin-2-yl)oxy)butyl)carbamate [Example 164]”, the IC50 in experiment [1] was 1540 nM; in experiment [2], 859 nM.
Regarding `COc1cc(C(=O)Nc2cc(NC(=O)c3ccc4c(c3)OCCO4)ccc2C)cc2sc(N)nc12` [Example 95, 2-amino-N-(5-(2,3-dihydrobenzo[b][1,4]dioxine-6-carboxamido)-2-methylphenyl)-4-methoxybenzo[d]thiazole-6-carboxamide], the IC50 in experiment [1] (Homo sapiens) was determined as 89 nM; in experiment [2] (Homo sapiens, U2OS) it was 156 nM.
Regarding `Cc1ccc(NC(=O)c2ccc3c(c2)OCCO3)cc1NC(=O)c1ccc2nc(O[C@@H]3CCN(C)C3)ccc2c1` [Example 49, (R)—N-(5-(2,3-dihydrobenzo[b][1,4]dioxine-6-carboxamido)-2-methylphenyl)-2-((1-methylpyrrolidin-3-yl)oxy)quinoline-6-carboxamide], the half-maximal inhibitory concentration (IC50) was 2 nM in experiment [1] (Homo sapiens) and 8 nM in experiment [2] (Homo sapiens, U2OS).
Regarding `COc1ccc(C(=O)Nc2cc(NC(=O)c3ccc4c(c3)OCCO4)ccc2C)cc1` [Example 27, N-(3-(4-methoxybenzamido)-4-methylphenyl)-2,3-dihydrobenzo[b][1,4]dioxine-6-carboxamide], the IC50 in experiment [1] (Homo sapiens) was 371 nM; in experiment [2] (Homo sapiens, U2OS) it was 106 nM.
The like results for `Cc1ccc(NC(=O)c2ccc3c(c2)OCCO3)cc1NC(=O)c1cnc2ccncc2c1` [Example 43, N-(5-(2,3-dihydrobenzo[b][1,4]dioxine-6-carboxamido)-2-methylphenyl)-1,6-naphthyridine-3-carboxamide] were, in that order, 22 nM and 34 nM.
The like results for `Cc1ccc(NC(=O)c2ccc3c(c2)OCCO3)cc1NC(=O)c1ccc2occc2c1` [Example 17, N-(3-(benzofuran-5-carboxamido)-4-methylphenyl)-2,3-dihydrobenzo[b][1,4]dioxine-6-carboxamide] were, in that order, 97 nM and 73 nM.
The like results for `COc1ccc(C(=O)Nc2cc(NC(=O)c3ccc4c(c3)OCCO4)ccc2C)cc1OC` [Example 5, N-(3-(3,4-dimethoxybenzamido)-4-methylphenyl)-2,3-dihydrobenzo[b][1,4]dioxine-6-carboxamide] were, in that order, 53 nM and 47 nM.
Take `COc1ccnc2ccc(C(=O)Nc3cc(NC(=O)c4ccc5c(c4)OCCO5)ccc3C)cc12` [Example 11, N-(5-(2,3-dihydrobenzo[b][1,4]dioxine-6-carboxamido)-2-methylphenyl)-4-methoxyquinoline-6-carboxamide]: the concentration for half-maximal inhibition (IC50) came to 38 nM in experiment [1] (Homo sapiens) and 95 nM in experiment [2] (Homo sapiens, U2OS).
The like results for `CNCCCOc1ccc2cc(C(=O)Nc3cc(NC(=O)c4ccc5c(c4)OCCO5)ccc3C)ccc2n1` [Example 76, N-(5-(2,3-dihydrobenzo[b][1,4]dioxine-6-carboxamido)-2-methylphenyl)-2-(3-(methylamino)propoxy)quinoline-6-carboxamide] were, in that order, 21 nM and 10 nM.
On the same counts, the results for `Cc1ccc(NC(=O)c2ccc3c(c2)OCCO3)cc1NC(=O)c1ccc2c(c1)CCC(CN(C)C)N2` (stereo not drawn) [Example 87, N-(5-(2,3-dihydrobenzo[b][1,4]dioxine-6-carboxamido)-2-methylphenyl)-2-((dimethylamino)methyl)-1,2,3,4-tetrahydroquinoline-6-carboxamide] are 608 nM and 260 nM.
On the same counts, the results for `Cc1ccc(NC(=O)c2cnc3c(c2)OCCO3)cc1NC(=O)c1ccc2nc(OCCN3CCCC3)ccc2c1` [Example 134, N-(4-methyl-3-(2-(2-(pyrrolidin-1-yl)ethoxy)quinoline-6-carboxamido)phenyl)-2,3-dihydro-[1,4]dioxino[2,3-b]pyridine-7-carboxamide] are 51 nM and 49 nM.
On to `Cc1ccc(NC(=O)c2ccc3c(c2)OCCO3)cc1NC(=O)c1ccc2nc(N(C)CCC(=O)O)ccc2c1` [Example 163, 3-((6-((5-(2,3-dihydrobenzo[b][1,4]dioxine-6-carboxamido)-2-methylphenyl)carbamoyl)quinolin-2-yl)(methyl)amino)propanoic acid], for which the IC50 in experiment [1] (Homo sapiens) was 1130 nM; in experiment [2] (Homo sapiens, U2OS), 1850 nM.
The like results for `COc1c(C)cc(C(=O)Nc2cc(NC(=O)c3ccc4c(c3)OCCO4)ccc2C)cc1C` [Example 42, N-(3-(4-methoxy-3,5-dimethylbenzamido)-4-methylphenyl)-2,3-dihydrobenzo[b][1,4]dioxine-6-carboxamide] were, in that order, 546 nM and 665 nM.
The like results for `Cc1ccc(NC(=O)c2ccc3c(c2)OCCO3)cc1NC(=O)c1ccc2nccc(C#N)c2c1` [Example 24, 4-cyano-N-(5-(2,3-dihydrobenzo[b][1,4]dioxine-6-carboxamido)-2-methylphenyl)quinoline-6-carboxamide] were, in that order, 174 nM and 169 nM.
The like results for `Cc1ccc(NC(=O)c2ccc3c(c2)OCCO3)cc1NC(=O)c1ccc2nc(N(C)CCN3CCCC3)ccc2c1` [Example 64, N-(5-(2,3-dihydrobenzo[b][1,4]dioxine-6-carboxamido)-2-methylphenyl)-2-(methyl(2-(pyrrolidin-1-yl)ethyl)amino)quinoline-6-carboxamide] were, in that order, 25 nM and 32 nM.
For the molecule `Cc1ccc2cc(C(=O)Nc3cc(NC(=O)c4cnc5c(c4)OCCO5)ccc3C)ccc2n1` [Example 135, N-(4-methyl-3-(2-methylquinoline-6-carboxamido)phenyl)-2,3-dihydro-[1,4]dioxino[2,3-b]pyridine-7-carboxamide], the concentration for half-maximal inhibition (IC50) in experiment [1] (Homo sapiens) was determined as 27 nM; in experiment [2] (Homo sapiens, U2OS) it was 29 nM.
For the molecule `Cc1ccc(NC(=O)c2ccc3c(c2)OCCO3)cc1NC(=O)c1ccc2nc(OC(C)CN3CCCC3)ccc2c1` (stereo not drawn) [Example 73, N-(5-(2,3-dihydrobenzo[b][1,4]dioxine-6-carboxamido)-2-methylphenyl)-2-((1-(pyrrolidin-1-yl)propan-2-yl)oxy)quinoline-6-carboxamide], the IC50 in experiment [1] (Homo sapiens) amounted to 90 nM; in experiment [2] (Homo sapiens, U2OS), 21 nM.
On the same counts, the results for `Cc1ccc(NC(=O)c2ccc3c(c2)OCCO3)cc1NC(=O)c1ccc2nc(OCCN3CCCCC3)ccc2c1` [Example 54, N-(5-(2,3-dihydrobenzo[b][1,4]dioxine-6-carboxamido)-2-methylphenyl)-2-(2-(piperidin-1-yl)ethoxy)quinoline-6-carboxamide] are 10 nM and 7 nM.
